Results as given in the CheMixHub ionic liquid set.

Experiment: xn = mol fraction of the nth substance listed

CCCC[n+]1ccn(C)c1.O=S(=O)([N-]S(=O)(=O)C(F)(F)F)C(F)(F)F + CCO
Conditions	electrical conductivity [S/m]	viscosity [mPa·s]
293 K, 100 kPa, x1 = 0.5784	–	20.7
293.3 K, 100 kPa, x1 = 0.4606	–	13.8
293.3 K, 100 kPa, x1 = 0.747	–	32.1
293.61 K, 100 kPa, x1 = 0.2688	–	6.37
293.61 K, 100 kPa, x1 = 1	–	61.8
293.91 K, 100 kPa, x1 = 0.2129	–	5.12
293.91 K, 100 kPa, x1 = 0.4606	–	13.5
293.91 K, 100 kPa, x1 = 0.6609	–	24.2
294.21 K, 100 kPa, x1 = 0.4215	–	12.22
294.21 K, 100 kPa, x1 = 0.6609	–	23.9
294.21 K, 100 kPa, x1 = 1	–	60.2
294.52 K, 100 kPa, x1 = 0.747	–	30.8
294.52 K, 100 kPa, x1 = 0.8264	–	38.5
294.52 K, 100 kPa, x1 = 1	–	59.4
294.82 K, 100 kPa, x1 = 0.4215	–	11.98
294.82 K, 100 kPa, x1 = 1	–	58.6
295.12 K, 100 kPa, x1 = 0.4215	–	11.87
295.12 K, 100 kPa, x1 = 0.747	–	30.1
295.42 K, 100 kPa, x1 = 0.2129	–	4.94
295.42 K, 100 kPa, x1 = 0.2688	–	6.11
295.42 K, 100 kPa, x1 = 0.4606	–	12.94
295.73 K, 100 kPa, x1 = 0.8264	–	36.7
296.64 K, 100 kPa, x1 = 0.2688	–	5.94
296.64 K, 100 kPa, x1 = 0.4606	–	12.48
296.64 K, 100 kPa, x1 = 1	–	54.1
296.94 K, 100 kPa, x1 = 0.4606	–	12.36
296.94 K, 100 kPa, x1 = 0.747	–	28.4
297.24 K, 100 kPa, x1 = 0.2688	–	5.85
297.24 K, 100 kPa, x1 = 0.4215	–	11.09
297.24 K, 100 kPa, x1 = 0.5784	–	18.17
297.24 K, 100 kPa, x1 = 0.747	–	28.1
297.55 K, 100 kPa, x1 = 0.8264	–	34.1
297.85 K, 100 kPa, x1 = 1	–	51.4
298 K, 100 kPa, x1 = 0.02	0.415	–
298 K, 100 kPa, x1 = 0.03	0.5634	–
298 K, 100 kPa, x1 = 0.05	–	1.663
298 K, 100 kPa, x1 = 0.06	0.8844	–
298 K, 100 kPa, x1 = 0.07	0.958	–
298 K, 100 kPa, x1 = 0.0999	–	2.413
298 K, 100 kPa, x1 = 0.1	1.118	–
298 K, 100 kPa, x1 = 0.1999	–	4.331
298 K, 100 kPa, x1 = 0.2	1.28	–
298 K, 100 kPa, x1 = 0.2993	–	6.629
298 K, 100 kPa, x1 = 0.3	1.216	–
298 K, 100 kPa, x1 = 0.397	–	9.56
298 K, 100 kPa, x1 = 0.4	1.09	–
298 K, 100 kPa, x1 = 0.4836	–	12.74
298 K, 100 kPa, x1 = 0.5	0.9534	–
298 K, 100 kPa, x1 = 0.6	0.8239	–
298 K, 100 kPa, x1 = 0.6978	–	23.61
298 K, 100 kPa, x1 = 0.7	0.6839	–
298 K, 100 kPa, x1 = 0.8	0.575	–
298 K, 100 kPa, x1 = 0.8001	–	30.86
298 K, 100 kPa, x1 = 0.8987	–	38.32
298 K, 100 kPa, x1 = 0.9	0.4819	–
298 K, 100 kPa, x1 = 1	–	49.7
298.15 K, 100 kPa, x1 = 0.2129	–	4.64
298.15 K, 100 kPa, x1 = 0.2688	–	5.73
298.15 K, 101 kPa, x2 = 0.1174	–	38.5
298.45 K, 100 kPa, x1 = 0.6609	–	21
298.45 K, 100 kPa, x1 = 0.747	–	27
298.76 K, 100 kPa, x1 = 0.4215	–	10.58
298.76 K, 100 kPa, x1 = 0.8264	–	32.6
299.06 K, 100 kPa, x1 = 0.2129	–	4.55
299.06 K, 100 kPa, x1 = 0.5784	–	17.18
299.06 K, 100 kPa, x1 = 0.6609	–	20.6
299.67 K, 100 kPa, x1 = 0.4606	–	11.41
299.97 K, 100 kPa, x1 = 0.2129	–	4.45
299.97 K, 100 kPa, x1 = 0.5784	–	16.72
300.27 K, 100 kPa, x1 = 0.2129	–	4.42
300.27 K, 100 kPa, x1 = 0.4215	–	10.11
300.27 K, 100 kPa, x1 = 0.747	–	25.4
300.27 K, 100 kPa, x1 = 0.8264	–	30.7
300.58 K, 100 kPa, x1 = 0.4215	–	10.02
300.88 K, 100 kPa, x1 = 0.2688	–	5.37
300.88 K, 100 kPa, x1 = 0.4215	–	9.92
301.18 K, 100 kPa, x1 = 0.2688	–	5.34
301.48 K, 100 kPa, x1 = 0.2129	–	4.3
302.7 K, 100 kPa, x1 = 0.2129	–	4.18
302.7 K, 100 kPa, x1 = 0.2688	–	5.15
302.7 K, 100 kPa, x1 = 0.747	–	23.5
302.7 K, 100 kPa, x1 = 0.8264	–	28.1
303 K, 100 kPa, x1 = 0.4606	–	10.38
303 K, 100 kPa, x1 = 0.747	–	23.2
303.3 K, 100 kPa, x1 = 0.2688	–	5.08
303.91 K, 100 kPa, x1 = 0.8264	–	26.8
304.52 K, 100 kPa, x1 = 0.4606	–	9.95
304.52 K, 100 kPa, x1 = 0.5784	–	14.59
304.52 K, 100 kPa, x1 = 1	–	39.3
304.82 K, 100 kPa, x1 = 0.2688	–	4.9
304.82 K, 100 kPa, x1 = 0.4215	–	8.85
304.82 K, 100 kPa, x1 = 0.747	–	21.9
305.12 K, 100 kPa, x1 = 1	–	38.4
306.03 K, 100 kPa, x1 = 0.2688	–	4.76
306.33 K, 100 kPa, x1 = 0.5784	–	13.83
306.33 K, 100 kPa, x1 = 0.8264	–	24.6
306.64 K, 100 kPa, x1 = 0.2688	–	4.69
306.64 K, 100 kPa, x1 = 0.6609	–	16.39
306.94 K, 100 kPa, x1 = 0.2129	–	3.8
307.24 K, 100 kPa, x1 = 0.4215	–	8.27
307.24 K, 100 kPa, x1 = 0.4606	–	9.23
308.15 K, 100 kPa, x1 = 0.2688	–	4.53
308.15 K, 100 kPa, x1 = 0.6609	–	15.67
308.45 K, 100 kPa, x1 = 0.2129	–	3.67
308.45 K, 100 kPa, x1 = 0.6609	–	15.53
308.45 K, 100 kPa, x1 = 0.747	–	19.5
308.76 K, 100 kPa, x1 = 0.4215	–	7.93
308.76 K, 100 kPa, x1 = 0.5784	–	12.88
308.76 K, 100 kPa, x1 = 0.747	–	19.3
309.06 K, 100 kPa, x1 = 0.2688	–	4.44
309.67 K, 100 kPa, x1 = 0.4215	–	7.73
309.67 K, 100 kPa, x1 = 1	–	32.4
309.97 K, 100 kPa, x1 = 0.4606	–	8.58
309.97 K, 100 kPa, x1 = 0.747	–	18.6
310.58 K, 100 kPa, x1 = 0.747	–	18.3
310.88 K, 100 kPa, x1 = 0.2129	–	3.47
310.88 K, 100 kPa, x1 = 0.5784	–	12.12
310.88 K, 100 kPa, x1 = 0.8264	–	20.9
311.18 K, 100 kPa, x1 = 0.4606	–	8.31
311.48 K, 100 kPa, x1 = 0.2129	–	3.42
311.79 K, 100 kPa, x1 = 0.4606	–	8.18
311.79 K, 100 kPa, x1 = 0.5784	–	11.8
311.79 K, 100 kPa, x1 = 0.747	–	17.58
311.79 K, 100 kPa, x1 = 0.8264	–	20.3
312.09 K, 100 kPa, x1 = 0.2688	–	4.13
312.09 K, 100 kPa, x1 = 0.6609	–	13.95
312.39 K, 100 kPa, x1 = 0.2688	–	4.1
312.39 K, 100 kPa, x1 = 0.4606	–	8.05
312.7 K, 100 kPa, x1 = 0.2688	–	4.07
313 K, 100 kPa, x1 = 0.747	–	16.94
313 K, 100 kPa, x1 = 1	–	28.8
313.3 K, 100 kPa, x1 = 0.4215	–	7.02
313.61 K, 100 kPa, x1 = 0.8264	–	19
313.91 K, 100 kPa, x1 = 0.6609	–	13.23
313.91 K, 100 kPa, x1 = 0.747	–	16.47
314.21 K, 100 kPa, x1 = 0.2129	–	3.21
314.21 K, 100 kPa, x1 = 0.2688	–	3.93
314.21 K, 100 kPa, x1 = 0.747	–	16.32
314.52 K, 100 kPa, x1 = 0.5784	–	10.92
314.52 K, 100 kPa, x1 = 0.747	–	16.17
314.82 K, 100 kPa, x1 = 0.6609	–	12.88
315.12 K, 100 kPa, x1 = 0.8264	–	18.1
315.42 K, 100 kPa, x1 = 0.2688	–	3.82
315.42 K, 100 kPa, x1 = 0.6609	–	12.66
315.73 K, 100 kPa, x1 = 0.4215	–	6.59
315.73 K, 100 kPa, x1 = 0.5784	–	10.55
315.73 K, 100 kPa, x1 = 0.6609	–	12.55
316.03 K, 100 kPa, x1 = 0.2688	–	3.77
316.33 K, 100 kPa, x1 = 0.4606	–	7.27
316.64 K, 100 kPa, x1 = 0.4215	–	6.44
316.64 K, 100 kPa, x1 = 0.5784	–	10.29
316.64 K, 100 kPa, x1 = 1	–	25.4
316.94 K, 100 kPa, x1 = 0.6609	–	12.12
316.94 K, 100 kPa, x1 = 0.8264	–	17
317.24 K, 100 kPa, x1 = 0.6609	–	12.01
317.55 K, 100 kPa, x1 = 0.2688	–	3.64
317.55 K, 100 kPa, x1 = 0.4215	–	6.29
317.55 K, 100 kPa, x1 = 0.5784	–	10.03
317.85 K, 100 kPa, x1 = 0.4215	–	6.24
317.85 K, 100 kPa, x1 = 0.6609	–	11.8
318.15 K, 100 kPa, x1 = 0.2688	–	3.58
318.15 K, 100 kPa, x1 = 0.4606	–	6.94
318.76 K, 100 kPa, x1 = 0.4606	–	6.83
318.76 K, 100 kPa, x1 = 0.5784	–	9.69
318.76 K, 100 kPa, x1 = 1	–	23.7
319.06 K, 100 kPa, x1 = 0.2129	–	2.87
319.67 K, 100 kPa, x1 = 0.4215	–	5.97
319.67 K, 100 kPa, x1 = 0.747	–	13.83
319.97 K, 100 kPa, x1 = 0.4606	–	6.63
319.97 K, 100 kPa, x1 = 0.5784	–	9.37
320.27 K, 100 kPa, x1 = 0.5784	–	9.29
320.27 K, 100 kPa, x1 = 0.747	–	13.58
320.27 K, 100 kPa, x1 = 0.8264	–	15.24
320.58 K, 100 kPa, x1 = 0.4215	–	5.83
321.18 K, 100 kPa, x1 = 0.4606	–	6.43
321.18 K, 100 kPa, x1 = 0.6609	–	10.73
321.48 K, 100 kPa, x1 = 0.747	–	13.09
321.79 K, 100 kPa, x1 = 0.2688	–	3.29
321.79 K, 100 kPa, x1 = 0.4606	–	6.33
322.09 K, 100 kPa, x1 = 0.2129	–	2.67
322.09 K, 100 kPa, x1 = 0.4215	–	5.62
322.09 K, 100 kPa, x1 = 1	–	21.3
322.39 K, 100 kPa, x1 = 0.747	–	12.74
322.7 K, 100 kPa, x1 = 0.747	–	12.63
323 K, 100 kPa, x1 = 0.4606	–	6.15
